# Data: paper PMC11525786, “In silico and pharmacological evaluation of GPR65 as a cancer immunotherapy target regulating T-cell functions” (Frontiers in Immunology, 2024)
# Target: T1, GPR65 (Homo sapiens, UniProt Q8IYL9)
# T1 construct: GPR65 overexpressed in A375 cells (rCD2-GPR65 tandem lentivector)
# Experiment: HTRF cAMP induction in GPR65-overexpressing A375 cells ([…] agonist, pH […]), blocked by GPR65 antagonists
# Type: cell-based
# T1 sequence (Q8IYL9 whole entry): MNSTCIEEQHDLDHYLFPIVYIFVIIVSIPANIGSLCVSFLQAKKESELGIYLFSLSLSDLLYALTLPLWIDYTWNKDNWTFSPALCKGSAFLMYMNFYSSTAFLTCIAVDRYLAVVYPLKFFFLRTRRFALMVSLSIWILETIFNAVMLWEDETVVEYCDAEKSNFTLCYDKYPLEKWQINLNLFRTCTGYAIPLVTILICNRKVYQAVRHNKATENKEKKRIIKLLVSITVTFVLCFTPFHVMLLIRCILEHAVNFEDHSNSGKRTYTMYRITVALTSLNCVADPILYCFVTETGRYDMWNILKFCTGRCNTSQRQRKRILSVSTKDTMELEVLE
structure (smiles),measurement,value
"CN1N=C(SCc2ccc(Cl)cc2Cl)Sc2c1cnn(C)c2=O [BTB09089, 3-[(2,4-dichlorobenzyl)thio]-1,6-dimethyl-5,6-dihydro-1H-pyridazino [4,5-e][1,3,4]thiadiazin-5-one]","HTRF cAMP induction in GPR65-overexpressing A375 cells (1 μM agonist, pH 7.5), b",capacity to inhibit cAMP biosynthesis upon GPR65 activation by BTB09089
